Experimental findings from patent publication US20100029615A1, “BENZIMIDAZOLE DERIVATIVES” (priority 2006, published 2010) are described below.

Where a name gives a salt, the structure may show the parent alone. Read-outs that look alike come from different tables or passages of the source.

The experiment concerns the target T1, SMO (Mus musculus, UniProt P56726).
T1 construct: endogenous in cells; host or cells: C3H10T1/2 (ATCC #CCL-226)
Put plainly: Smoothened (SMO)/Sonic Hedgehog (SHh) Transient Transcriptional Activation Assay (Gli-luciferase reporter in C3H10T1/2 cells). Format: cell-based, murine. The note with it: SHh 250 ng/ml, 20 hrs; for SMO % inhibition at 2 uM: 2 uM test compound; for SMO CELL % INHIBITION @ 2 μM: 2 μM test compound. The method, boiled down: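 Luminescence (Dual-Glo) measured after 20 h co-exposure at 37 °C to 250 ng/ml human SHh and compound at 2 uM down to 2 nM final. Cells were C3H10T1/2 carrying a transfected murine 10× Gli response-element luciferase construct with pEGFP, starved 20 h in 0.5% calf serum beforehand.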
(Reporter assays use an easily measured gene product as a stand-in for the process of interest.)

[1] abbreviates: C3H 10T1/2, 2 μM test compound, read-out: SMO CELL % INHIBITION @ 2 μM.

T1 sequence (P56726 33-793): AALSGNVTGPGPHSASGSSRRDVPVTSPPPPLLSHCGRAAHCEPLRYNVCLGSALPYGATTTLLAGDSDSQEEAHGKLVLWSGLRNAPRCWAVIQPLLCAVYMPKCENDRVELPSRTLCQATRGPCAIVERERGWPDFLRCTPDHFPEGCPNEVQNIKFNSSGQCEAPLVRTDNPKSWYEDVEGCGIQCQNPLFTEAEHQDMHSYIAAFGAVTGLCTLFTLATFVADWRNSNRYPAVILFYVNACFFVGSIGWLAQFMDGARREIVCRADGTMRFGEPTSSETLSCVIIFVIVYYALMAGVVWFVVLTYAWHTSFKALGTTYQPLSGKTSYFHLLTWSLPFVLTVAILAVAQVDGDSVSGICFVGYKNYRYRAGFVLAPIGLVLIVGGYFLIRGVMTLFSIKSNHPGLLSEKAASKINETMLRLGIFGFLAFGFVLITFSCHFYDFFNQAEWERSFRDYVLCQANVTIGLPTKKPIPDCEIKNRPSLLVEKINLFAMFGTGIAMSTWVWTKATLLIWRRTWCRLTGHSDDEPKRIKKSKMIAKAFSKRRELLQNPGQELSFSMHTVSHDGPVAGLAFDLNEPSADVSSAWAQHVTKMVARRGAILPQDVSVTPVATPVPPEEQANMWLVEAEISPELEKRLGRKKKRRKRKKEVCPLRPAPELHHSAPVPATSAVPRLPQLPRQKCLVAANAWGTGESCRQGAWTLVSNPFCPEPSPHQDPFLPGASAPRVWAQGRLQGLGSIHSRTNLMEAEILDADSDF

Take `Cc1ccc2[nH]c(C(=O)N[C@@H]3CCC[C@H](c4nc5ccccc5[nH]4)C3)c(C)c2c1` [Example 191, N-[(1R,3S)-3-(1H-benzimidazol-2-yl)cyclohexyl]-3,5-dimethyl-1H-indole-2-carboxamide triflouroacetate]: the inhibition (in general, the change of the read-out against control, counted positive when it falls) at 2 µM under setting [1] turned out to be 107%.

As to `Cc1cc(C)n(CCC(=O)NC2CCCC(c3nc4ccccc4[nH]3)C2)n1` (centres unmarked) [Example 120, N-[3-(1H-benzimidazol-2-yl)cyclohexyl]-3-(3,5-dimethyl-1H-pyrazol-1-yl)propanamide triflouroacetate], under setting [1], the inhibition at 2 µM is 70%.

In the case of `O=C(N[C@@H]1CCC[C@H](c2nc3cc(C(F)(F)F)ccc3[nH]2)C1)c1ccc2c(c1)CCNC2` [Example 287, N-{(1R,3S)-3-[5-(trifluoromethyl)-1H-benzimidazol-2-yl]cyclohexyl}-1,2,3,4-tetrahydroisoquino-line-6-carboxamide HCl], under setting [1], the inhibition at 2 µM was determined as 107%.

With `Cc1cccc(=O)n1CC(=O)NC1CCCC(c2nc3ccccc3[nH]2)C1` (centres unmarked) [Example 111, N-[3-(1H-benzimidazol-2-yl)cyclohexyl]-2-(6-methyl-2-oxopyridin-1(2H)-yl)acetamide triflouroacetate], under setting [1], the inhibition at 2 µM was 103%.

`O=C(N[C@@H]1CCC[C@H](c2nc3ccccc3[nH]2)C1)c1ccc(Cl)nc1` [N-((1R,3S)-3-(1H-Benzo[d]imidazol-2-yl)cyclohexyl)-6-chloronicotinamide]: where the note is “C3H 10T1/2, 2 uM test compound, read-out: SMO % inhibition at 2 uM”, the inhibition at 2 µM amounted to 103%.

As for “N-(3-(6-((2-Methoxyethylamino)methyl)-1-methyl-1H-benzo[d]imidazol-2-yl)cyclohexyl)-2,3-dihydrobenzo[b][1,4]dioxine-6-carboxamide and N-(3-(5-((2-methoxyethylamino)methyl)-1-methyl-1H-benzo[d]imidazol-2-yl)cyclohexyl)-2,3-dihydrobenzo[b][1,4]dioxine-6-carboxamide [Example 38]”, the “SMO % inhibition at 2 uM” value came out at 103%.

In the case of `CN1CCCc2cc(C(=O)N[C@@H]3CCC[C@H](c4nc5ccccc5[nH]4)C3)ccc21` [Example 201, N-[(1R,3S)-3-(1H-benzimidazol-2-yl)cyclohexyl]-1-methyl-1,2,3,4-tetrahydroquino-line-6-carboxamide triflouroacetate], the “SMO CELL % INHIBITION @ 2 μM” value turned out to be 101%.

Consider `CCn1nc(C(C)C)cc1C(=O)NC1CCCC(c2nc3ccccc3[nH]2)C1` (centres unmarked) [Example 146, N-[3-(1H-benzimidazol-2-yl)cyclohexyl]-1-ethyl-3-isopropyl-1H-pyrazole-5-carboxamide triflouroacetate], for which the inhibition at 2 µM under setting [1] worked out at 61%.

For the compound `O=C(N[C@@H]1CCC[C@H](c2nc3ccc(Br)cc3[nH]2)C1)c1ccc2c(c1)OCCO2` [Example 224, N-[(1R,3S)-3-(6-bromo-1H-benzimidazol-2-yl)cyclohexyl]-2,3-dihydro-1,4-benzodioxine-6-carboxamide HCl], the inhibition at 2 µM under setting [1] is 106%.

For the compound `O=C(N[C@@H]1CCC[C@H](c2nc3ccccc3[nH]2)C1)c1ccc2nonc2c1` [Example 190, N-[(1R,3S)-3-(1H-benzimidazol-2-yl)cyclohexyl]-2,1,3-benzoxadiazole-5-carboxamide triflouroacetate], the inhibition at 2 µM under setting [1] came to 37%.

As to `Cc1nn(C)c2sc(C(=O)N[C@@H]3CCC[C@H](c4nc5cc(C(F)(F)F)ccc5[nH]4)C3)cc12` [Example 284, 1,3-dimethyl-N-{(1R,3S)-3-[5-(trifluoromethyl)-1H-benzimidazol-2-yl]cyclohexyl}-1H-thieno[2,3-c]pyrazole-5-carboxamide HCl], under setting [1], the inhibition at 2 µM was 94.9%.

With `O=C(N[C@@H]1CCC[C@H](c2nc3cc(C(F)(F)F)ccc3[nH]2)C1)c1n[nH]c2c1CCCCCC2` [Example 283, N-{(1R,3S)-3-[5-(trifluoromethyl)-1H-benzimidazol-2-yl]cyclohexyl} 4,5,6,7,8,9-hexahydro-1H-cycloocta[c]-pyrazole-3-carboxamide HCl], the inhibition at 2 µM under setting [1] is 106%.

As to “N-(3-(1-Methyl-6-(morpholinomethyl)-1H-benzo[d]imidazol-2-yl]cyclohexyl)-2,3-dihydrobenzo[b][1,4]dioxine-6-carboxamide and N-(3-(1-Methyl-5-(morpholinomethyl)-1H-benzo[d]imidazol-2-yl]cyclohexyl)-2,3-dihydrobenzo[b][1,4]dioxine-6-carboxamide [Example 37]”, the “SMO % inhibition at 2 uM” value is reported as 88%.

As for `COc1cc(C(=O)NC2CCCC(c3nc4ccccc4[nH]3)C2)nc(OC)n1` (centres unmarked) [Example 119, N-[3-(1H-benzimidazol-2-yl)cyclohexyl]-2,6-dimethoxypyr-imidine-4-carboxamide triflouroacetate], the inhibition at 2 µM under setting [1] amounted to 75%.

On to `Cc1noc(C)c1NC(=O)N[C@@H]1CCC[C@H](c2nc3ccccc3[nH]2)C1` [Example 233, 1-((1R,3S)-3-(1H-benzo[d]imidaz-ol-2-yl)cyclohexyl)-3-(3,5-dimethylisoxaz-ol-4-yl)urea], for which, under setting [1], the inhibition at 2 µM turned out to be 48%.

On to `O=C(N[C@@H]1CCC[C@H](c2nc3ccccc3[nH]2)C1)c1ccc2c(c1)CCO2` [Example 198, N-[(1R,3S)-3-(1H-benzimidazol-2-yl)cyclohexyl]-2,3-dihydro-1-benzofuran-5-carboxamide triflouroacetate], for which, under setting [1], the inhibition at 2 µM was 85%.

Take “N-(3-(5-(Aminomethyl)-1-methyl-1H-benzo[d]imidazol-2-yl)cyclohexyl)-3,5-dimethoxybenzamide and N-(3-(6-(aminomethyl)-1-methyl-1H-benzo[d]imidazol-2-yl)cyclohexyl)-3,5-dimethoxybenzamide [Example 23]”: the “SMO % inhibition at 2 uM” value turned out to be 104%.

Consider `O=C(Nc1ccc(Cl)c(Cl)c1)N[C@@H]1CCC[C@H](c2nc3ccccc3[nH]2)C1` [Example 237], for which the inhibition at 2 µM under setting [1] was determined as 111%.

For the compound `COc1cc(OC)cc(C(=O)N[C@@H]2CCC[C@H](c3nc4ccc(C(F)(F)F)cc4[nH]3)C2)c1` [Example 171, 3,5-dimethoxy-N-{(1R,3S)-3-[6-(trifluoromethyl)-1H-benzimidazol-2-yl]cyclohexyl} benzamide (+)-tartrate], the “SMO CELL % INHIBITION @ 2 μM” value is given as 107.2%.

As to `O=C(N[C@@H]1CCC[C@H](c2nc3ccccc3[nH]2)C1)c1ccc2snnc2c1` [Example 202, N-[(1R,3S)-3-(1H-benzimidazol-2-yl)cyclohexyl]-1,2,3-benzothiadiazole-5-carboxamide triflouroacetate], the inhibition at 2 µM under setting [1] came to 34%.

For the compound `O=C(CCc1nc2ccccc2[nH]1)NC1CCCC(c2nc3ccccc3[nH]2)C1` (centres unmarked) [Example 148, 3-(1H-benzimidazol-2-yl)-N-[3-(1H-benzimidazol-2-yl)cyclohexyl]-propanamide triflouroacetate], the inhibition at 2 µM under setting [1] turned out to be 50%.

Consider `CN1C(=O)CCc2cc(C(=O)N[C@@H]3CCC[C@H](c4nc5cc(C(F)(F)F)ccc5[nH]4)C3)ccc21` [Example 304, 1-methyl-2-oxo-N-[(1R,3S)-3-[5-(trifluoromethyl)-1H-benzimidazol-2-yl]cyclohexyl}-1,2,3,4-tetrahydroquin-oline-6-carboxamide (+)-tartrate], for which, under setting [1], the inhibition at 2 µM was determined as 111%.

Take `O=C(NC12CCCC(c3nc4cc(C(F)(F)F)ccc4[nH]3)(C1)C2)c1ccc(C(=O)c2ccccc2)cc1` [Example 275, 4-benzoyl-N-{5-[5-(trifluoromethyl)-1H-benzimidazol-2-yl]bicyclo[3.1.1]hept-1-yl}benzamide]: under setting [1], the inhibition at 2 µM was determined as 89%.
